According to patent US10392404B2, “Compounds and compositions as kinase inhibitors” (NOVARTIS AG, priority 2014, dated 2019):

Key:
C-RAF = molecular target: T1, C-RAF (Homo sapiens, UniProt P04049, Y340E/Y341E); assay: In vitro Raf activity determination (Alpha Screen, biotinylated kinase-dead MEK1 substrate), C-Raf; type: biochemical; conditions: c-Raf approximately 4 nM; ATP 1 μM; pre-incubation 60 minutes; reaction 1 hour at room temperature
T1 construct: His tag (implied by nickel chromatography) (cleaved yes); StrepII tag (cleaved yes); made in house; host or cells: Sf9 insect cells (baculovirus), CRAF and h14-3-3 zeta co-expressed; MEK1 substrate from E. coli
T1 sequence (P04049 whole entry Y340E/Y341E): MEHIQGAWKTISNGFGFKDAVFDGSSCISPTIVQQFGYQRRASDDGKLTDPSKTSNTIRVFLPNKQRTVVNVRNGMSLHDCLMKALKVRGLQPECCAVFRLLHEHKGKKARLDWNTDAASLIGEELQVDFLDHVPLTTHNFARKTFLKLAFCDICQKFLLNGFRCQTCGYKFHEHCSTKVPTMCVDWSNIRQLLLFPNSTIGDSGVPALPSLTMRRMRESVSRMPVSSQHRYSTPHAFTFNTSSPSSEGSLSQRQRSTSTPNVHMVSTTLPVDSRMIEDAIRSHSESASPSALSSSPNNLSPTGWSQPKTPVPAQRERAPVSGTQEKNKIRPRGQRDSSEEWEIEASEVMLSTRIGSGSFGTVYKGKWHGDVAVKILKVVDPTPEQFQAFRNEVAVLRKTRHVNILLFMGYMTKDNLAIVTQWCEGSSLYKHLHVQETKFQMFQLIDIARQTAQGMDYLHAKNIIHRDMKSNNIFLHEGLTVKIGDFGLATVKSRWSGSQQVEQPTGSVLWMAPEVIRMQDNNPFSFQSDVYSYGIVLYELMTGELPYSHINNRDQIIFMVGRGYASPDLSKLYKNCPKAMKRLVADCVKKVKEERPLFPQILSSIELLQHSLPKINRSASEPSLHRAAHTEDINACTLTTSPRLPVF
T1 sequence (P63104 whole entry partner): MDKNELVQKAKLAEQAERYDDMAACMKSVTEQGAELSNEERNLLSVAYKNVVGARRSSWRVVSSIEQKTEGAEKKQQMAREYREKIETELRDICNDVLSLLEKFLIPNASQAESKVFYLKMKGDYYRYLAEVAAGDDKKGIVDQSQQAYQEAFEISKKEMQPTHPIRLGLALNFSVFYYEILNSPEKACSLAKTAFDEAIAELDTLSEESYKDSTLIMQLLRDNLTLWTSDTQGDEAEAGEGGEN
Summary of the method: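 AlphaScreen read-out of MEK phosphorylation using an anti-phospho-MEK1/2 antibody after a 1 hour room-temperature reaction at 1 μM ATP. Enzyme: approximately 4 nM Sf9-expressed full-length activated C-Raf (Y340E/Y341E, with 14-3-3ζ) on approximately 10 nM biotinylated K97R MEK1, after 60 min compound preincubation. IC50 by non-linear fit.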

b-Raf (V600E) = molecular target: T2, b-Raf (V600E) (Homo sapiens, UniProt P15056, V600E); assay: In vitro Raf activity determination (Alpha Screen, biotinylated kinase-dead MEK1 substrate), B-Raf; type: biochemical; conditions: b-Raf (V600E) approximately 4 pM; ATP 10 μM; pre-incubation 60 minutes; reaction 3 hours at room temperature
T2 construct: made in house
T2 sequence (P15056 whole entry V600E): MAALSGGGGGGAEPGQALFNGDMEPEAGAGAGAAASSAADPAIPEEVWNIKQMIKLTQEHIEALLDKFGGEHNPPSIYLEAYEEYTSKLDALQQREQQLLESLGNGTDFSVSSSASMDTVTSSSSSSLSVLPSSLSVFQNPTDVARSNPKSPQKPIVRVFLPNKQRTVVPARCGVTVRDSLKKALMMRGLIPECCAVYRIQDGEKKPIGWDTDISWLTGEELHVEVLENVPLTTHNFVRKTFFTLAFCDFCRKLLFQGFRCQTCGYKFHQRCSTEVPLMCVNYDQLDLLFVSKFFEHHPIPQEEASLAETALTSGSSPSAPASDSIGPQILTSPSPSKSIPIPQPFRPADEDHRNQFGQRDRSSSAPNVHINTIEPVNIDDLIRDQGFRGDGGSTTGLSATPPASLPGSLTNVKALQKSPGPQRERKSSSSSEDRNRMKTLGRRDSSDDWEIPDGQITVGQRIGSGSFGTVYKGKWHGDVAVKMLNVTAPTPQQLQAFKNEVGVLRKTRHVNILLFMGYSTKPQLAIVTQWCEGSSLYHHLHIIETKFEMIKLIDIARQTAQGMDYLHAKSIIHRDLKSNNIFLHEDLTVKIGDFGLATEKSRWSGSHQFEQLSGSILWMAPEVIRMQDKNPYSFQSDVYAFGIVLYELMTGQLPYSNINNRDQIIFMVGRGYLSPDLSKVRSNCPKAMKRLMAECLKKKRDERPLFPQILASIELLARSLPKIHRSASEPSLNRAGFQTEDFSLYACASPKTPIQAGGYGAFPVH
Summary of the method: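 IC50 from non-linear regression of AlphaScreen phospho-MEK signal (anti-p-MEK1/2 antibody). b-Raf(V600E), about 4 pM, phosphorylated ~10 nM biotinylated K97R MEK1 with 10 μM ATP for 3 h at room temperature after 60 min compound pre-incubation; buffer pH 7.5 Tris, 15 mM MgCl2, 1 mM DTT.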

SMILES	IC50 (C-RAF)	IC50 (b-Raf (V600E))
CCn1cc(C(=O)Nc2cnc(C)c(-c3cnc(N4CC(C)(O)C4)c(C#N)c3)c2)cc(C(F)(F)F)c1=O [Example 191, N-(5′-cyano-6′-(3-hydroxy-3-methylazetidin-1-yl)-2-methyl-[3,3′-bipyridin]-5-yl)-1-ethyl-6-oxo-5-(trifluoromethyl)-1,6-dihydropyridine-3-carboxamide]	5.21 nM	30.6 nM
CCC(F)(F)c1cc(C(=O)Nc2cnc(C)c(-c3cnc(N4CC(C)(O)C4)c(C#N)c3)c2)ccn1 [Example 192, N-(5′-cyano-6′-(3-hydroxy-3-methylazetidin-1-yl)-2-methyl-[3,3′-bipyridin]-5-yl)-2-(1,1-difluoropropyl) isonicotinamide]	1.15 nM	5.13 nM
Cc1ncc(NC(=O)c2ccnc(C(C)(C)F)c2)cc1-c1cnc(N2CC(C)(O)C2)c(C#N)c1 [Example 193, N-(5′-cyano-6′-(3-hydroxy-3-methylazetidin-1-yl)-2-methyl-[3,3′-bipyridin]-5-yl)-2-(2-fluoropropan-2-yl)isonicotinamide]	1.75 nM	7.91 nM
Cc1ccc(NC(=O)c2cnnc(C(C)(C)F)c2)cc1-c1cnc(N2CC(C)(O)C2)c(C#N)c1 [Example 194, N-(3-(5-cyano-6-(3-hydroxy-3-methylazetidin-1-yl)pyridin-3-yl)-4-methylphenyl)-6-(2-fluoropropan-2-yl)pyridazine-4-carboxamide]	0.285 nM	1.53 nM
COCCNc1ncc(-c2cc(NC(=O)c3ccnc(C(F)F)c3)cnc2C)cc1C#N [Example 196, N-(5′-cyano-6′-((2-methoxyethyl)amino)-2-methyl-[3,3′-bipyridin]-5-yl)-2-(difluoromethyl) isonicotinamide]	2.14 nM	16.1 nM
COCCNc1ncc(-c2cc(NC(=O)c3ccnc(C4(C#N)CC4)c3)cnc2C)cc1C#N [Example 197, N-(5′-cyano-6′-((2-methoxyethyl)amino)-2-methyl-[3,3′-bipyridin]-5-yl)-2-(1-cyanocyclopropyl) isonicotinamide]	0.818 nM	5.23 nM
COCCNc1ncc(-c2cc(NC(=O)c3ccnc(C(C)(C)C#N)c3)cnc2C)cc1C#N [Example 198, N-(5′-cyano-6′-((2-methoxyethyl)amino)-2-methyl-[3,3′-bipyridin]-5-yl)-2-(2-cyanopropan-2-yl)isonicotinamide]	4.06 nM	13.4 nM
COCCNc1ncc(-c2cc(NC(=O)c3cccc(C(F)F)c3)cnc2C)cc1C#N [Example 199, N-(5′-cyano-6′-((2-methoxyethyl)amino)-2-methyl-[3,3′-bipyridin]-5-yl)-3-(difluoromethyl) benzamide]	0.386 nM	2.62 nM
Cc1ncc(NC(=O)c2cnnc(C3CC3)c2)cc1-c1cnc(NC2CCOCC2)c(C#N)c1 [Example 200, N-(5′-cyano-2-methyl-6′-((tetrahydro-2H-pyran-4-yl)amino)-[3,3′-bipyridin]-5-yl)-6-cyclopropylpyridazine-4-carboxamide]	2.38 nM	15.2 nM
COCCNc1ncc(-c2cc(NC(=O)c3cnnc(C(C)(C)C#N)c3)ccc2C)cc1C#N [Example 201, N-(3-(5-cyano-6-((2-methoxyethyl)amino)pyridin-3-yl)-4-methylphenyl)-6-(2-cyanopropan-2-yl)pyridazine-4-carboxamide]	0.447 nM	3.04 nM
COCCNc1ncc(-c2cc(NC(=O)c3cnnc(C(C)(C)C#N)c3)cnc2C)cc1C#N [Example 202, N-(5′-cyano-6′-((2-methoxyethyl)amino)-2-methyl-[3,3′-bipyridin]-5-yl)-6-(2-cyanopropan-2-yl)pyridazine-4-carboxamide]	4.82 nM	32.6 nM
COCCNc1ncc(-c2cc(NC(=O)c3cnnc(C(F)(F)F)c3)cnc2C)cc1C#N [Example 203, N-(5′-cyano-6′-((2-methoxyethyl)amino)-2-methyl-[3,3′-bipyridin]-5-yl)-6-(trifluoromethyl) pyridazine-4-carboxamide]	8.17 nM	48.2 nM
Cc1ccc(NC(=O)c2cnnc(C(C)(C)C#N)c2)cc1-c1cnc(NC2CCOCC2)c(C#N)c1 [Example 204, N-(3-(5-cyano-6-((tetrahydro-2H-pyran-4-yl)amino)pyridin-3-yl)-4-methylphenyl)-6-(2-cyanopropan-2-yl)pyridazine-4-carboxamide]	0.219 nM	1.45 nM
Cc1ncc(NC(=O)c2cnnc(C(C)(C)C#N)c2)cc1-c1cnc(NC2CCOCC2)c(C#N)c1 [Example 205, N-(5′-cyano-2-methyl-6′-((tetrahydro-2H-pyran-4-yl)amino)-[3,3′-bipyridin]-5-yl)-6-(2-cyanopropan-2-yl)pyridazine-4-carboxamide]	1.82 nM	10.9 nM
Cc1ccc(NC(=O)c2cnnc(C(C)(C)C#N)c2)cc1-c1cnc(N2CCOCC2)c(C#N)c1 [Example 206, N-(3-(5-cyano-6-morpholinopyridin-3-yl)-4-methylphenyl) 6-(2-cyanopropan-2 yl)pyridazine-4-carboxamide]	0.199 nM	1.23 nM
Cc1ncc(NC(=O)c2cnnc(C(C)(C)C#N)c2)cc1-c1cnc(N2CCOCC2)c(C#N)c1 [Example 207, N-(5′-cyano-2-methyl-6′-morpholino-[3,3′-bipyridin]-5-yl)-6-(2-cyanopropan-2-yl)pyridazine-4-carboxamide]	1.35 nM	6.14 nM
Cc1ccc(NC(=O)c2cnnc(C(F)(F)F)c2)cc1-c1cnc(N2CCOCC2)c(C#N)c1 [Example 208, N-(3-(5-cyano-6-morpholinopyridin-3-yl)-4-methylphenyl)-6-(trifluoromethyl) pyridazine-4-carboxamide]	0.0967 nM	0.397 nM
COCCNc1ncc(-c2cc(NC(=O)c3ccnc(C(C)(C)O)c3)ccc2C)cc1C#N [Example 209, N-(3-(5-cyano-6-((2-methoxyethyl)amino)pyridin-3-yl)-4-methylphenyl)-2-(2-hydroxypropan-2-yl)isonicotinamide]	0.777 nM	4.17 nM
COCCNc1ncc(-c2cc(NC(=O)c3ccnc(C(C)(C)O)c3)cnc2C)cc1C#N [Example 210, N-(5′-cyano-6′-((2-methoxyethyl)amino)-2-methyl-[3,3′-bipyridin]-5-yl)-2-(2-hydroxypropan-2-yl)isonicotinamide]	5.97 nM	36 nM
Cc1ccc(NC(=O)c2cnnc(C(C)(C)C#N)c2)cc1-c1cnc(N2CCNCC2)c(C#N)c1 [Example 211, N-(3-(5-cyano-6-(piperazin-1-yl)pyridin-3-yl)-4-methylphenyl)-6-(2-cyanopropan-2-yl)pyridazine-4-carboxamide]	0.886 nM	3.07 nM
Cc1ccc(NC(=O)c2ccnc(C(F)(F)F)c2)cc1-c1cnc(N2CC(C)(O)C2)c(C#N)c1 [Example 212, N-(3-(5-cyano-6-(3-hydroxy-3-methylazetidin-1-yl)pyridin-3-yl)-4-methylphenyl)-2-(trifluoromethyl) isonicotinamide]	0.32 nM	1.15 nM
Cc1ccc(NC(=O)c2cnnc(C(F)(F)F)c2)cc1-c1cnc(N2CC(C)(O)C2)c(C#N)c1 [Example 213]	1.78 nM	8.79 nM
Cc1ccc(NC(=O)c2cnnc(C(C)(C)C#N)c2)cc1-c1cnc(N2CC(C)(O)C2)c(C#N)c1 [Example 214, N-(3-(5-cyano-6-(3-hydroxy-3-methylazetidin-1-yl)pyridin-3-yl)-4-methylphenyl)-6-(2-cyanopropan-2-yl)pyridazine-4-carboxamide]	0.741 nM	4.72 nM
Cc1ccc(NC(=O)c2ccnc(C(C)(C)O)c2)cc1-c1cnc(N2CC(C)(O)C2)c(C#N)c1 [Example 215, N-(3-(5-cyano-6-(3-hydroxy-3-methylazetidin-1-yl)pyridin-3-yl)-4-methylphenyl)-2-(2-hydroxypropan-2-yl)isonicotinamide]	1.28 nM	8.05 nM
Cc1ccc(NC(=O)c2ccnc(C(F)F)c2)cc1-c1cnc(N2CC(C)(O)C2)c(C#N)c1 [Example 216, N-(3-(5-cyano-6-(3-hydroxy-3-methylazetidin-1-yl)pyridin-3-yl)-4-methylphenyl)-2-(difluoromethyl) isonicotinamide]	0.691 nM	4.73 nM
Cc1ccc(NC(=O)c2ccnc(S(C)(=O)=O)c2)cc1-c1cnc(N2CC(C)(O)C2)c(C#N)c1 [Example 217, N-(3-(5-cyano-6-(3-hydroxy-3-methylazetidin-1-yl)pyridin-3-yl)-4-methylphenyl)-2-(methylsulfonyl) isonicotinamide]	1.07 nM	6.78 nM
Cc1ccc(NC(=O)c2cccc(S(C)(=O)=O)c2)cc1-c1cnc(N2CC(C)(O)C2)c(C#N)c1 [Example 218, N-(3-(5-cyano-6-(3-hydroxy-3-methylazetidin-1-yl)pyridin-3-yl)-4-methylphenyl)-3-(methylsulfonyl) benzamide]	0.617 nM	3.58 nM
Cc1ccc(NC(=O)c2ccnc(C3CC3)c2)cc1-c1cnc(N2CC(C)(O)C2)c(C#N)c1 [Example 219, N-(3-(5-cyano-6-(3-hydroxy-3-methylazetidin-1-yl)pyridin-3-yl)-4-methylphenyl)-2-cyclopropyl-isonicotinamide]	0.171 nM	1.31 nM
